ChEMBL document CHEMBL4261648, “Lobaric acid and pseudodepsidones inhibit NF-κB signaling pathway by activation of PPAR-γ” (Bioorg Med Chem, 2018)
Active and inactive are the calls of the source. The calls are words filed in the database; no cut-off is given here.

Key:
[1] = Cytotoxicity against PMA-differentiated human U937 macrophages assessed as cell viability at 80 uM after 24 hrs by MTT assay relative to untreated control; type: cell-based, U-937; conditions: read-out: Activity
[2] = Cytotoxicity against PMA-differentiated human U937 macrophages assessed as cell viability at 40 uM after 24 hrs by MTT assay relative to untreated control; type: cell-based, U-937; conditions: read-out: Activity
[3] = Cytotoxicity against PMA-differentiated human U937 macrophages assessed as cell viability at 20 uM after 24 hrs by MTT assay relative to untreated control; type: cell-based, U-937; conditions: read-out: Activity
[4] = Cytotoxicity against PMA-differentiated human U937 macrophages assessed as cell viability at 10 uM after 24 hrs by MTT assay relative to untreated control; type: cell-based, U-937; conditions: read-out: Activity
[5] = target: Toll-like receptor 4 (Homo sapiens) (UniProt O00206); test: Inhibition of TLR4 in human U937-3xkappaB-LUC cells assessed as inhibition of Aggregatibacter actinomycetemcomitans LPS-induced NF-kappaB activation at 50 uM preincubated for 30 mins followed by LPS stimulation and measured after 6 hrs post LPS challenge by Bright-Glo luciferase reporter gene assay relative to control
[6] = target: Toll-like receptor 4 (Homo sapiens) (UniProt O00206); test: Inhibition of TLR4 in human U937-3xkappaB-LUC cells assessed as inhibition of Aggregatibacter actinomycetemcomitans LPS-induced NF-kappaB activation at 20 uM preincubated for 30 mins followed by LPS stimulation and measured after 6 hrs post LPS challenge by Bright-Glo luciferase reporter gene assay relative to control
[7] = target: Toll-like receptor 4 (Homo sapiens) (UniProt O00206); test: Inhibition of TLR4 in human U937-3xkappaB-LUC cells assessed as inhibition of Aggregatibacter actinomycetemcomitans LPS-induced NF-kappaB activation at 10 uM preincubated for 30 mins followed by LPS stimulation and measured after 6 hrs post LPS challenge by Bright-Glo luciferase reporter gene assay relative to control
[8] = target: Toll-like receptor 4 (Homo sapiens) (UniProt O00206); test: Inhibition of TLR4 in human U937-3xkappaB-LUC cells assessed as inhibition of Aggregatibacter actinomycetemcomitans LPS-induced NF-kappaB activation at 5 uM preincubated for 30 mins followed by LPS stimulation and measured after 6 hrs post LPS challenge by Bright-Glo luciferase reporter gene assay relative to control
[9] = target: Toll-like receptor 4 (Homo sapiens) (UniProt O00206); test: Inhibition of TLR4 in human U937-3xkappaB-LUC cells assessed as inhibition of Aggregatibacter actinomycetemcomitans LPS-induced NF-kappaB activation preincubated for 30 mins followed by LPS stimulation and measured after 6 hrs post LPS challenge by Bright-Glo luciferase reporter gene assay relative to control
U-937 [10] = test: Antiinflammatory activity in PMA-differentiated human U937 cells assessed as inhibition of LPS-induced TNFalpha secretion at 80 uM preincubated for 2 hrs followed by LPS stimulation and measured after 24 hrs post LPS challenge by ELISA relative to control; type: functional
U-937 [11] = test: Antiinflammatory activity in PMA-differentiated human U937 cells assessed as inhibition of LPS-induced TNFalpha secretion at 40 uM preincubated for 2 hrs followed by LPS stimulation and measured after 24 hrs post LPS challenge by ELISA relative to control; type: functional
U-937 [12] = test: Antiinflammatory activity in PMA-differentiated human U937 cells assessed as inhibition of LPS-induced TNFalpha secretion at 20 uM preincubated for 2 hrs followed by LPS stimulation and measured after 24 hrs post LPS challenge by ELISA relative to control; type: functional
U-937 [13] = test: Antiinflammatory activity in PMA-differentiated human U937 cells assessed as inhibition of LPS-induced TNFalpha secretion at 10 uM preincubated for 2 hrs followed by LPS stimulation and measured after 24 hrs post LPS challenge by ELISA relative to control; type: functional
U-937 [14] = test: Antiinflammatory activity in human U937 cells assessed as inhibition of LPS-induced IL-6 production at 40 to 80 uM preincubated for 2 hrs followed by LPS stimulation and measured after 24 hrs post LPS challenge by ELISA; type: functional, cell-based
U-937 [15] = test: Antiinflammatory activity in human U937 cells assessed as inhibition of LPS-induced IL-8 production at 40 to 80 uM preincubated for 2 hrs followed by LPS stimulation and measured after 24 hrs post LPS challenge by ELISA; type: functional, cell-based
U-937 [16] = test: Antiinflammatory activity in human U937 cells assessed as inhibition of LPS-induced IL-8 production at 10 to 20 uM preincubated for 2 hrs followed by LPS stimulation and measured after 24 hrs post LPS challenge by ELISA; type: functional, cell-based
U-937 [17] = test: Antiinflammatory activity in human U937 cells assessed as inhibition of LPS-induced IL-1beta production preincubated for 2 hrs followed by LPS stimulation and measured after 24 hrs post LPS challenge by ELISA; type: functional, cell-based
U-937 [18] = test: Antiinflammatory activity in human U937 cells assessed as inhibition of LPS-induced IL-1beta production at 20 uM preincubated for 2 hrs followed by LPS stimulation and measured after 24 hrs post LPS challenge by ELISA; type: functional, cell-based
U-937 [19] = test: Antiinflammatory activity in human U937 cells assessed as inhibition of Escherichia coli LPS-induced IL-1beta secretion at 10 to 80 uM preincubated for 2 hrs followed by LPS stimulation and measured after 24 hrs post LPS challenge by ELISA; type: functional, cell-based
U-937 [20] = test: Antiinflammatory activity in human U937 cells assessed as inhibition of Escherichia coli LPS-induced TNFalpha secretion at 10 to 80 uM preincubated for 2 hrs followed by LPS stimulation and measured after 24 hrs post LPS challenge by ELISA; type: functional, cell-based
[21] = target: Toll-like receptor 4 (Homo sapiens) (UniProt O00206); test: Inhibition of TLR4 in human U937-3xkappaB-LUC cells assessed as inhibition of Escherichia coli LPS-induced NF-kappaB activation at 5 to 50 uM preincubated for 30 mins followed by LPS stimulation and measured after 6 hrs post LPS challenge by Bright-Glo luciferase reporter gene assay relative to control
U-937 [22] = test: Antiinflammatory activity in human U937 cells assessed as inhibition Aggregatibacter actinomycetemcomitans LPS-induced IL-1beta secretion at 10 to 80 uM preincubated for 2 hrs followed by LPS stimulation and measured after 24 hrs post LPS challenge by ELISA; type: functional, cell-based
U-937 [23] = test: Antiinflammatory activity in human U937 cells assessed as inhibition Aggregatibacter actinomycetemcomitans LPS-induced TNFalpha secretion at 10 to 80 uM preincubated for 2 hrs followed by LPS stimulation and measured after 24 hrs post LPS challenge by ELISA; type: functional, cell-based
[24] = target: Toll-like receptor 4 (Homo sapiens) (UniProt O00206); test: Inhibition of TLR4 in human U937-3xkappaB-LUC cells assessed as inhibition of Aggregatibacter actinomycetemcomitans LPS-induced NF-kappaB activation at 5 to 50 uM preincubated for 30 mins followed by LPS stimulation and measured after 6 hrs post LPS challenge by Bright-Glo luciferase reporter gene assay relative to control
[25] = target: T1, Peroxisome proliferator-activated receptor gamma (Homo sapiens) (UniProt P37231); test: Binding affinity to recombinant human PPARgamma LBD at 40 uM by TR-FRET based green polar-screen PPAR competitor assay
T1 sequence (whole entry): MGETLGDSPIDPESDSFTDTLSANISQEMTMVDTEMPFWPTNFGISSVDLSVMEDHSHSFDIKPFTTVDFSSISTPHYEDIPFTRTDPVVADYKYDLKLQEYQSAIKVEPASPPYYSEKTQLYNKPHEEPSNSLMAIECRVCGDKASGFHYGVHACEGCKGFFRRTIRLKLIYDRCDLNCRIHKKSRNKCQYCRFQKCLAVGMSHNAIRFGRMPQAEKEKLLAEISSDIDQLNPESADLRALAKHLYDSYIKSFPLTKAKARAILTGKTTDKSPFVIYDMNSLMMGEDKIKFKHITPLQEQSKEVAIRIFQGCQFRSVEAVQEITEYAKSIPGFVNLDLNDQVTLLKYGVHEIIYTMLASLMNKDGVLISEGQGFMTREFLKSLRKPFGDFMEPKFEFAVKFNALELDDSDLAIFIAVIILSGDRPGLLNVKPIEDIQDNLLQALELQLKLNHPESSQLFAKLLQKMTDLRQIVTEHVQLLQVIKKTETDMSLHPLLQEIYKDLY

U-937 [26] = test: Antiinflammatory activity in human U937 cells assessed as inhibition of LPS-induced IL-8 production preincubated for 2 hrs followed by LPS stimulation and measured after 24 hrs post LPS challenge by ELISA; type: functional
U-937 [27] = test: Antiinflammatory activity in human U937 cells assessed as inhibition of LPS-induced IL-1beta secretion preincubated for 2 hrs followed by LPS stimulation and measured after 24 hrs post LPS challenge by ELISA; type: functional
U-937 [28] = test: Antiinflammatory activity in human U937 cells assessed as inhibition of LPS-induced IL-6 production preincubated for 2 hrs followed by LPS stimulation and measured after 24 hrs post LPS challenge by ELISA; type: functional
U-937 [29] = test: Antiinflammatory activity in PMA-differentiated human U937 cells assessed as inhibition of LPS-induced TNFalpha secretion preincubated for 2 hrs followed by LPS stimulation and measured after 24 hrs post LPS challenge by ELISA relative to control; type: functional
U-937 [30] = test: Antiinflammatory activity in human U937 cells assessed as inhibition of LPS-induced IL-6 production at 10 to 80 uM preincubated for 2 hrs followed by LPS stimulation and measured after 24 hrs post LPS challenge by ELISA; type: functional, cell-based
U-937 [31] = test: Antiinflammatory activity in human U937 cells assessed as inhibition of LPS-induced IL-1beta production at 10 to 80 uM preincubated for 2 hrs followed by LPS stimulation and measured after 24 hrs post LPS challenge by ELISA; type: functional, cell-based
U-937 [32] = test: Antiinflammatory activity in human U937 cells assessed as inhibition of LPS-induced IL-8 production at 20 uM preincubated for 2 hrs followed by LPS stimulation and measured after 24 hrs post LPS challenge by ELISA; type: functional, cell-based

Toll-like receptor 4 (Homo sapiens), sequence (O00206 whole entry, the tested form may be a part): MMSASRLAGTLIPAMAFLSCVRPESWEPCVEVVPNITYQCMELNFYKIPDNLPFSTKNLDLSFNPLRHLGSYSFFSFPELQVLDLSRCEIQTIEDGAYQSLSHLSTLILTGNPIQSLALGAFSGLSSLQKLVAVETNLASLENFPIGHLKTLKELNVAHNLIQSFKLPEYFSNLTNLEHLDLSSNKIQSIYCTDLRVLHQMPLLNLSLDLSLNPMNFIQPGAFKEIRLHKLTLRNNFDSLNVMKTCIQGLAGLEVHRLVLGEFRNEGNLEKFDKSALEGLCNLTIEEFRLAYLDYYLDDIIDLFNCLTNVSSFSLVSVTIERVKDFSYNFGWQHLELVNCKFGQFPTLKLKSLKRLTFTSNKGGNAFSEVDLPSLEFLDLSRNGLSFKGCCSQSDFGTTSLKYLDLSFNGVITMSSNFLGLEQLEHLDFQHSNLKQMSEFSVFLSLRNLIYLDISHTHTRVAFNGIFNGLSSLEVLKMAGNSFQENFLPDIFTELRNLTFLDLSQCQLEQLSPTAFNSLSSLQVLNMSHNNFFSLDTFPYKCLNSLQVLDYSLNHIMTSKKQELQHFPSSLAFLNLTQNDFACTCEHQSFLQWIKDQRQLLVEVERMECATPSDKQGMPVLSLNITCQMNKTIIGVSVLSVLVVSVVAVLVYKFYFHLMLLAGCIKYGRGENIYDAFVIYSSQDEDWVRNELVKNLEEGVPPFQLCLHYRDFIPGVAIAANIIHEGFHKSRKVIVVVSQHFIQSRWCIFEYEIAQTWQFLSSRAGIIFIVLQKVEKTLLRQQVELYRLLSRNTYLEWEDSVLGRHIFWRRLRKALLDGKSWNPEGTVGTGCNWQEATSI

SMILES	viability at 24 h, 80 µM [1] [%]	viability at 24 h, 40 µM [2] [%]	viability at 24 h, 20 µM [3] [%]	viability at 24 h, 10 µM [4] [%]	inhibition [5] [%]	inhibition [6] [%]	inhibition [7] [%]	inhibition [8] [%]	inhibition [9]	inhibition at 80 µM (U-937 [10]) [%]	inhibition at 40 µM (U-937 [11]) [%]	inhibition at 20 µM (U-937 [12]) [%]	inhibition at 10 µM (U-937 [13]) [%]	inhibition (U-937 [14])	inhibition (U-937 [15])	inhibition (U-937 [16])	inhibition (U-937 [17])	inhibition (U-937 [19])	inhibition (U-937 [20])	inhibition [21]	also measured
CCCCCc1c(Oc2cc(OC)cc(C(=O)CCCC)c2C(=O)OC)c(O)cc(O)c1C(=O)O	48	67	86	96	98	75	52	37	Dose-dependent effect	100	55	0	0	Active	Active	inactive	Dose-dependent effect	Active	Active	Active	inhibition (U-937 [18]): inactive; inhibition (U-937 [22]): Active; inhibition (U-937 [23]): Active; inhibition [24]: Active; Activity [25]: Active
Cc1ccc(S(=O)(=O)/C=C/C#N)cc1	–	–	–	–	–	–	–	–	99.3%	–	–	–	–	–	–	–	–	–	–	–	inhibition (INH) (U-937 [26]): 99.1%; inhibition (INH) (U-937 [27]): 95.9%; inhibition (INH) (U-937 [28]): 99.2%; inhibition (INH) (U-937 [29]): 99.5%
CCC/C=C1\OC(=O)c2cc(Oc3c(O)cc(O)cc3CCCCC)c(OC)cc21	10	38	101	117	99	60	28	26	Dose-dependent effect	100	90	0	0	–	–	–	–	–	–	–	inhibition (U-937 [30]): inactive; inhibition (U-937 [31]): inactive
CCCCCc1c2c(cc(O)c1C(=O)O)OC(=O)c1c(cc(OC)cc1C(=O)CCCC)O2 [LOBARIC ACID]	90	73	121	118	99	78	42	29	Dose-dependent effect	100	100	89	1	Active	Active	inactive	Dose-dependent effect	Dose-dependent effect	Dose-dependent effect	Dose-dependent effect	inhibition (U-937 [32]): inactive; inhibition (U-937 [22]): Dose-dependent effect; inhibition (U-937 [23]): Dose-dependent effect; inhibition [24]: Dose-dependent effect; Activity [25]: Active
